These results are taken from patent US20150297606A1, “Tricyclic Lactams for Use in the Protection of Hematopoietic Stem and Progenitor Cells Against Ionizing Radiation” (G1 THERAPEUTICS, INC., priority 2014, published 2015).

Where only a bound is given, the exact number is not on record here.

The conditions of data set [1]: Grade 3/4 neutropenia and leukopenia, clinical trial; cited from earlier work.
The test system of data set [2] is CDK4/6-dependent cell lines. The note with it: cited from earlier work.
The target of the next data set is CDK2/CyclinA (Homo sapiens, UniProt P24941). As to the kind of experiment: CDK2/CycA kinase assay (Nanosyn, Caliper microfluidic). The class given is biochemical. The following applies: 12-point dose-response, ATP 50 μM (Km), 3 hr; read-out: Inhibition of CDK kinases: Cdk2/CycA. The protocol: (§1) Selected compounds disclosed herein were tested in CDK4/cyclinD1, CDK6/CycD3, CDK2/CycA, CDK2/cyclinE, CDK5/p25, CDK5/p35, CDK7/CycH/MAT1, and CDK9/CycT kinase assays by Nanosyn (Santa Clara, Calif.) to determine their inhibitory effect on these CDKs. The assays were performed using microfluidic kinase detection technology (Caliper Assay Platform). The compounds were tested in 12-point dose-response format in singlicate at Km for ATP. Phosphoacceptor substrate peptide concentration used was 1.25 μM for all assays (except […] was used for the CKD7/CycH/MAT1 assay and Staurosporine was used as the reference compound for all assays. Specifics of each assay are as described below:
CDK2/CyclinA: Enzyme concentration: 0.2 nM; ATP concentration: 50 μM; Incubation time: 3 hr.

A further data set concerns the target CDK2/CyclinE (Homo sapiens, UniProt P24941). Put plainly: CDK2/cyclinE kinase assay (Nanosyn, Caliper microfluidic). The class given is biochemical. The note with it: read-out: Inhibition of CDK kinases: Cdk2/CycE. The protocol:
as §1
CDK2/CyclinE: Enzyme concentration: 0.2 nM; ATP concentration: 100 μM; Incubation time: 3 hr.

Another data set has as its target CDK4/CyclinD1 (Homo sapiens, UniProt P11802). Put plainly: CDK4/cyclinD1 kinase assay (Nanosyn, Caliper microfluidic). The class given is biochemical. The following applies: 12-point dose-response, ATP 200 μM (Km), 3 hr; read-out: Inhibition of CDK kinases: Cdk4/CycD1. The protocol: as §1
CDK4/CyclinD1: Enzyme concentration: 1 nM; ATP concentration: 200 μM; Incubation time: 3 hr.

In the next data set the target is CDK5/p25 (Homo sapiens, UniProt Q00535). Put plainly: CDK5/p25 kinase assay (Nanosyn, Caliper microfluidic). The note with it: 12-point dose-response, ATP 20 μM (Km), 3 hr; read-out: Inhibition of CDK kinases: Cdk5/p25. The class given is biochemical. The protocol:
as §1
CDK5/p25: Enzyme concentration: 0.1 nM; ATP concentration: 20 μM; Incubation time: 3 hr.

For another data set, the target named is CDK5/p35 (Homo sapiens, UniProt Q00535). Put plainly: CDK5/p35 kinase assay (Nanosyn, Caliper microfluidic). Type of data set: biochemical. The note with it: 12-point dose-response, ATP 20 μM (Km), 3 hr; read-out: Inhibition of CDK kinases: Cdk5/p35. The protocol: as §1
CDK5/p35, sequence (Q00535 whole entry, species assumed): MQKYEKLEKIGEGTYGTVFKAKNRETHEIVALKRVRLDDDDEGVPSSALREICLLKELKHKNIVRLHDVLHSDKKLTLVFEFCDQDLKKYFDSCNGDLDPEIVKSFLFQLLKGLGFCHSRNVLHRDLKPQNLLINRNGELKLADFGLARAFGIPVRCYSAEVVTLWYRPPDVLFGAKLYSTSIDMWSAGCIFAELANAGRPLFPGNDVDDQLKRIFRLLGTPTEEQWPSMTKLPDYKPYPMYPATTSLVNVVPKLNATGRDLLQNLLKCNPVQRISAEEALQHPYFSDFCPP
CDK5/p35, sequence (Q15078 whole entry partner, species assumed): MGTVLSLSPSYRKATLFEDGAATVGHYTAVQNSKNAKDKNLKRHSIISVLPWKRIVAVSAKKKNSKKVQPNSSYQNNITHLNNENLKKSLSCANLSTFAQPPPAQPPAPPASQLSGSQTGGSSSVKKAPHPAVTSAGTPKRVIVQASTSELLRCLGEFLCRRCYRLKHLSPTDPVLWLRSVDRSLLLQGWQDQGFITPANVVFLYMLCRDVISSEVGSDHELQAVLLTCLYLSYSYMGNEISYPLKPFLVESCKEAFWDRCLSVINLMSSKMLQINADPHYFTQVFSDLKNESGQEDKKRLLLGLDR
CDK5/p35: Enzyme concentration: 0.07 nM; ATP concentration: 20 μM; Incubation time: 3 hr.

The target in another data set is CDK6/CyclinD3 (Homo sapiens, UniProt Q00534). As to the kind of experiment: CDK6/CycD3 kinase assay (Nanosyn, Caliper microfluidic). Type of data set: biochemical. The following applies: 12-point dose-response, ATP 300 μM (Km), 3 hr; read-out: Inhibition of CDK kinases: Cdk6/CycD3. Here is the method: as §1
CDK6/CyclinD3, sequence (Q00534 whole entry, species assumed): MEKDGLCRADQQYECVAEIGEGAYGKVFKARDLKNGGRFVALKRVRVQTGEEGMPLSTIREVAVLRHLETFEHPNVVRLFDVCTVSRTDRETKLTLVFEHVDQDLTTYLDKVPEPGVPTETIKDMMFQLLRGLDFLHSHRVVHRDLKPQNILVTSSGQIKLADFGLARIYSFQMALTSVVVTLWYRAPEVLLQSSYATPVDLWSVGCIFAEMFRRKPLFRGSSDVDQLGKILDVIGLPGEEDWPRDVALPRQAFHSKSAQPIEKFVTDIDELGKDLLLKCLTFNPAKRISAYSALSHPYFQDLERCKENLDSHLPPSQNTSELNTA
CDK6/CyclinD3, sequence (P30281 whole entry partner, species assumed): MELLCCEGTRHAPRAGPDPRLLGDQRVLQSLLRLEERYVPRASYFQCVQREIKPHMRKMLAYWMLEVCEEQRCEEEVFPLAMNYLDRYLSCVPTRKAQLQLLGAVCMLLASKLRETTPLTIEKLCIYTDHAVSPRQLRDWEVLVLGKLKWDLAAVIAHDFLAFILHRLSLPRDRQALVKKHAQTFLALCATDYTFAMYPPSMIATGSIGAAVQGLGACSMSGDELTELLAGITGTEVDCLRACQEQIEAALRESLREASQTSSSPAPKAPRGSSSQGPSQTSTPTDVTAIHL
CDK6/CyclinD3: Enzyme concentration: 10 nM; ATP concentration: 300 μM; Incubation time: 3 hr.

The target of another data set is CDK9/CycT (Homo sapiens, UniProt P50750). As to the kind of experiment: CDK9/CycT kinase assay (Nanosyn, Caliper microfluidic). Type of data set: biochemical. The following applies: read-out: Inhibition of CDK kinases: Cdk9/Cyc T. The protocol: as §1
CDK9/CycT, sequence (P50750 whole entry, species assumed): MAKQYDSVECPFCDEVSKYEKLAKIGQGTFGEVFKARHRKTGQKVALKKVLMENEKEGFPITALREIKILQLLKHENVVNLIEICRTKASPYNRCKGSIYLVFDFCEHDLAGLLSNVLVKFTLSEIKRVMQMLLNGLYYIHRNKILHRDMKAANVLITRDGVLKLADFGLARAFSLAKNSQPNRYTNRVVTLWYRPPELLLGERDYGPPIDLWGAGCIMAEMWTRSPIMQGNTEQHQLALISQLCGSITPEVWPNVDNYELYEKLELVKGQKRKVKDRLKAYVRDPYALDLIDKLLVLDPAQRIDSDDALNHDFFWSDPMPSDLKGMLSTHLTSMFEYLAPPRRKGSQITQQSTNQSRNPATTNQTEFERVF
CDK9/CycT, sequence (O60563 whole entry partner, species assumed): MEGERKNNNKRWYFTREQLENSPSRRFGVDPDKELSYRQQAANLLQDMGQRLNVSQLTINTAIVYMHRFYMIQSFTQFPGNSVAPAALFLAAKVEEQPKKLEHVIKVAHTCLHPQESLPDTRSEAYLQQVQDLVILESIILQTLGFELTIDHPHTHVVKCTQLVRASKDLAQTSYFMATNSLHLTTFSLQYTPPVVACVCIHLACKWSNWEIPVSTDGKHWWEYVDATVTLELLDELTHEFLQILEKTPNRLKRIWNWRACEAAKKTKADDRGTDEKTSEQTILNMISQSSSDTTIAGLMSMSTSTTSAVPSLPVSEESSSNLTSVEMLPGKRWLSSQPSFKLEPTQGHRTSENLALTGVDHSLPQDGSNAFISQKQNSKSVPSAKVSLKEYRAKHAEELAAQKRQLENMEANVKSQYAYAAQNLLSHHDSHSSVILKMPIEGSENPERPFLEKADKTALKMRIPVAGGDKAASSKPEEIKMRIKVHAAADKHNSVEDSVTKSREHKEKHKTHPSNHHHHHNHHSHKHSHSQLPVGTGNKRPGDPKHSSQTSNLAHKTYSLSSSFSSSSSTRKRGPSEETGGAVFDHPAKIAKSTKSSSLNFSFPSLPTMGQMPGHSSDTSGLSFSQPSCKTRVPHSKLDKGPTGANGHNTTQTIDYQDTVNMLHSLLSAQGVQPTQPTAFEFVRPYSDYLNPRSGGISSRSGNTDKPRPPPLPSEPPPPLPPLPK
CDK9/CycT: Enzyme concentration: 5 nM; ATP concentration: 10 μM; Incubation time: 17 hr.

A further data set has as its target CDK7/CycH/MAT1 (Homo sapiens, UniProt P50613). As to the kind of experiment: CDK7/CycH/MAT1 kinase assay (Nanosyn, Caliper microfluidic). The class given is biochemical. The note with it: 12-point dose-response, ATP 50 μM (Km), 3 hr; read-out: Inhibition of CDK kinases: Cdk7/CycH/MAT1. The protocol: as §1
CDK7/CycH/MAT1: Enzyme concentration: 5 nM; ATP concentration: 50 μM; Incubation time: 3 hr.

CDK4/CyclinD1, sequence (P11802 whole entry, species assumed): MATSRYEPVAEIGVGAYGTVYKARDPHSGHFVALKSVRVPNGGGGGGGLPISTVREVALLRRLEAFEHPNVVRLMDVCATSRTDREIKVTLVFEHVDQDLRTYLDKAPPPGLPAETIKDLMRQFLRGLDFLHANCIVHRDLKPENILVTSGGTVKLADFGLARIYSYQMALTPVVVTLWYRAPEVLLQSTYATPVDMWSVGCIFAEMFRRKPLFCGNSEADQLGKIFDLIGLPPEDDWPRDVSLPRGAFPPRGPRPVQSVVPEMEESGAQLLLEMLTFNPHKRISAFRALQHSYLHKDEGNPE
CDK4/CyclinD1, sequence (P24385 whole entry partner, species assumed): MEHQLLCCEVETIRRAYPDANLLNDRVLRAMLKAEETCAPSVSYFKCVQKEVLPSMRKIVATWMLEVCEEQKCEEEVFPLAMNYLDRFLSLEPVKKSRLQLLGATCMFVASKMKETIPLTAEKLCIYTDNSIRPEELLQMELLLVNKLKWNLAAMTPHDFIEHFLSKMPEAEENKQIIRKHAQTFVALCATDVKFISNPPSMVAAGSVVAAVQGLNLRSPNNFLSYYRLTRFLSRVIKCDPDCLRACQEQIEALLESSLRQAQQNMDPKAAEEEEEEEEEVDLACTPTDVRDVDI
CDK7/CycH/MAT1, sequence (P50613 whole entry, species assumed): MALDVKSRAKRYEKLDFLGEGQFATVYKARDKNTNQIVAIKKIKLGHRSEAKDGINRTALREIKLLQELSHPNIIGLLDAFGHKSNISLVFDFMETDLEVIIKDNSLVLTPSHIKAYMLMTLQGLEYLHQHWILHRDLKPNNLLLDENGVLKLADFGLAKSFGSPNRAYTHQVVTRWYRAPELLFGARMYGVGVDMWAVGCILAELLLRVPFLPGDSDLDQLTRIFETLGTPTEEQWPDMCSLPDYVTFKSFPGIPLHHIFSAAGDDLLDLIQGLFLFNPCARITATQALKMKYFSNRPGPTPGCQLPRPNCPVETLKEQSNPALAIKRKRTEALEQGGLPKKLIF
CDK7/CycH/MAT1, sequence (P51946 whole entry partner, species assumed): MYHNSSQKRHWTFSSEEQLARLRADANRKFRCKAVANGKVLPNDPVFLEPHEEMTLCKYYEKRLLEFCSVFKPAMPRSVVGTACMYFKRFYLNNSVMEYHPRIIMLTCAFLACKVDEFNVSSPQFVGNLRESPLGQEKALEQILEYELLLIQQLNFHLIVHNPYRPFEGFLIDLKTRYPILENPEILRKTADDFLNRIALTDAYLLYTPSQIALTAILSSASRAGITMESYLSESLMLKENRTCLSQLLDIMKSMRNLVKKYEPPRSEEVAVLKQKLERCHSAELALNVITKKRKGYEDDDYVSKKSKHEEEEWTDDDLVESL
CDK7/CycH/MAT1, sequence (P51948 whole entry partner, species assumed): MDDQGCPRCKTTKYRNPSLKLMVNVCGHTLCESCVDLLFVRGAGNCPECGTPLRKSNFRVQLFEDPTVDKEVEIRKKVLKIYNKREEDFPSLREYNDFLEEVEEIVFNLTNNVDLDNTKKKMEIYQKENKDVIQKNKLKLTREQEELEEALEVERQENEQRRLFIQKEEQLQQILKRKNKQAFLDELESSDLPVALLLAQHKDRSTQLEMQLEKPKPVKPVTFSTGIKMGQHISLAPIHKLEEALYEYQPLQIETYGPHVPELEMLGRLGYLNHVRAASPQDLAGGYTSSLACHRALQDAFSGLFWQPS
CDK5/p25, sequence (Q00535 whole entry, species assumed): as the sequence (Q00535 whole entry, species assumed) above
CDK5/p25, sequence (Q15078 99-307 partner limits assumed, species assumed): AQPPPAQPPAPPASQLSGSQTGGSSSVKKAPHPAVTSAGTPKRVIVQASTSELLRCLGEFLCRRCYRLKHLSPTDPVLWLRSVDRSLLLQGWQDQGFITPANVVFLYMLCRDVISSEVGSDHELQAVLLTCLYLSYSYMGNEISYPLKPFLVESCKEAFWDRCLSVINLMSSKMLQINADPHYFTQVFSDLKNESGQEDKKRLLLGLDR

Regarding `CC(=O)c1c(C)c2cnc(Nc3ccc(N4CCNCC4)cn3)nc2n(C2CCCC2)c1=O` [PD0332991, 6-acetyl-8-cyclopentyl-5-methyl-2-(5-piperazin-1-yl-pyridin-2-ylammino)-8H-pyrido-[2,3-d]-pyrimidin-7-one], in [1], the “patients requiring a dose interruption” value is listed as 71% and the “patients requiring a dose reduction” value was 35%. For the same compound, in data set [2], the IR protective characteristics result is reported as “exhibited IR protective characteristics”.
As for `CN1CCN(c2ccc(Nc3ncc4c(n3)N3C(CC4=O)C(=O)NCC3(C)C)nc2)CC1` (centres unmarked) [YYY], the IC50 is greater than 100 µM at CDK2/CyclinA; greater than 100 µM on CDK2/CyclinE; less than 10 µM on CDK4/CyclinD1; greater than 100 µM at CDK5/p25; greater than 100 µM on CDK5/p35; 10 to 100 µM on CDK6/CyclinD3. The IC50 at CDK9/CycT was greater than 100 µM.
Turning to `CN1CCN(c2ccc(Nc3ncc4c(n3)N3CCNC(=O)C3CC4=O)nc2)CC1` (centres unmarked) [GGGG], the IC50 on CDK2/CyclinA was greater than 100 µM; on CDK2/CyclinE, greater than 100 µM; on CDK4/CyclinD1 it was 10 to 100 µM; on CDK5/p25, greater than 100 µM; on CDK5/p35, greater than 100 µM; on CDK6/CyclinD3 it was 10 to 100 µM. The IC50 at CDK7/CycH/MAT1 and at CDK9/CycT was greater than 100 µM in each case.
Consider `O=C1NC(=O)c2c1c1c3ccccc3[nH]c1c1[nH]c3cc(Br)ccc3c21` [Compound 2BrIC, 2-bromo-12,13-dihydro-5H-indolo[2,3-a]pyrrolo[3,4]carbazole-5,6-dione], for which the IR protective characteristics entry in data set [2] is recorded as “exhibited IR protective characteristics”.
For `CN1CCN(c2ccc(Nc3ncc4c(n3)N3C(CC4)C(=O)NCC3(C)C)nc2)CC1` (centres unmarked) [ZZZ], the IC50 on CDK2/CyclinA, on CDK2/CyclinE, on CDK4/CyclinD1, on CDK5/p25, on CDK5/p35 and on CDK6/CyclinD3 was greater than 100 µM throughout. Besides, at CDK9/CycT, the IC50 is greater than 100 µM.
As for `CN1CCN(c2ccc(Nc3ncc4c(n3)N3C(CC4)C(=O)NCC34CCCCC4)nc2)CC1` (centres unmarked) [BBBB], the IC50 at CDK2/CyclinA is 10 to 100 µM; on CDK2/CyclinE, greater than 100 µM; on CDK4/CyclinD1 it was 10 to 100 µM; on CDK5/p25, greater than 100 µM; on CDK5/p35 it was greater than 100 µM; at CDK6/CyclinD3 it was 10 to 100 µM. In addition, the IC50 on CDK7/CycH/MAT1 and at CDK9/CycT was greater than 100 µM in each case.
Turning to `CN1CCN(c2ccc(Nc3ncc4c(n3)N3C(CC4=O)C(=O)NCC34CCCCC4)nc2)CC1` (centres unmarked) [AAAA], the IC50 on CDK2/CyclinA, on CDK2/CyclinE, at CDK4/CyclinD1, at CDK5/p25, on CDK5/p35 and on CDK6/CyclinD3 was greater than 100 µM throughout. In addition, the IC50 at CDK7/CycH/MAT1 and on CDK9/CycT was greater than 100 µM each time.
As for `CN1CCN(c2ccc(Nc3ncc4c(n3)N3C(CC4=O)C(=O)NCC34CCCC4)nc2)CC1` (centres unmarked) [CCCC], the IC50 at CDK2/CyclinA, on CDK2/CyclinE, at CDK4/CyclinD1, at CDK5/p25, at CDK5/p35 and on CDK6/CyclinD3 was greater than 100 µM throughout. Also, the IC50 at CDK7/CycH/MAT1 and at CDK9/CycT was greater than 100 µM each time.
